Measured values from patent US5416090A, “Method of treating inflammation” (priority 1992, dated 1995).
Like-named read-outs stand apart in the source and are kept apart here.

Legend:
[1] = test system: delayed type hypersensitivity (picryl chloride induced foot pad swelling); assay: Murine delayed type hypersensitivity (DTH) response, picryl chloride; format: in vivo, mouse (Balb/c)
Protocol: The activity of ergoline compounds was also evaluated in a murine delayed-type hypersensitivity (DTH) assay. The DTH assay was performed in substantial accordance with the method set forth in Example 1. Briefly, mice were sensitized by topical administration of picryl chloride on day 1 of the assay. On day 4 paw size was determined and recorded and the paw was then challenged with picryl chloride. The challenged paw was remeasured on day 5 to quantitate the DTH response via the increase in paw size.
(§1) Male Balb/c mice (Charles River) weighing 20 to 25 g were used in all DTH studies. When adrenalectomized studies were carried out, sham surgery and adrenalectomized mice were obtained from the vendor. Animals were maintained on a 12:12 hour light:dark cycle. Mice were allowed ad lib access for food (Purina lab chow) and water (normal saline for adrenalectomized animals).
(§2) A DTH response was assessed by measuring the degree of rear foot pad swelling induced by picryl chloride. On day 0, mice were sensitized with 100 μl of 5% picryl chloride (in ethanol), which was applied to a shaved abdomen. Negative control groups were shaved but not sensitized. On day 3, mice were anesthetized with methoxyflurane, and the baseline rear foot pad thickness was measured with a micrometer (Mitutoyo) in μ, and was recorded in duplicate. Fifty μl of picryl chloride was then applied to each pad with a pipet (Rainen) while the animal was unconscious. The negative controls also received picryl chloride at this point to control for primary irritancy. Twenty-four hours later, the mice were sacrificed by CO2 asphyxiation and each rear foot pad was again measured in duplicate, and any evidence of foot pad swelling was calculated. The mean rear foot swelling change of both pads for each animal from days 3 to 4 was used as the index of immune function in the DTH assay.
(§3) Unless otherwise stated all animals were given four subcutaneous doses of test compound just prior to picryl chloride sensitization on day 0, on day 1 and day 2, and just prior to picryl chloride challenge on day 3. In a few experiments, compounds were administered via oral or intraperitoneal routes. All drugs were delivered as suspensions in 1% carboxy-methylcellulose (also contained 0.8% NaCl, 1% polysorbate-80, 1.4% benzyl alcohol). Carboxymethyl-cellulose (1%) was used in control injections.

[2] = test system: delayed type hypersensitivity (DTH) in adrenalectomized mice; assay: DTH response in adrenalectomized (ADX) mice; format: in vivo, mouse (Balb/c); details: FIG. 10B
Excerpt: CMC= carboxymethylcellulose vehicle control; NEG=negative control for DTH; POS=positive control for DTH.
Dopamine agonists are known to elevate circulating glucocorticoid levels, via activation of the hypothalamo-pituitary-adrenal axis. […] Since glucocorticoids are potential endogenous anti-inflammatory substances, this action is one potential mechanism for the anti-inflammatory effect of the ergolines. However, in subsequent inflammation studies, the anti-inflammatory effects of D-1-isopropyl-6-n-propyl-8β-methylthiomethyl ergoline were retained in mice lacking an adrenal gland and therefore devoid of the increase in circulating corticosterone. (FIG. 10B)
Male Balb/c mice (Charles River) weighing 20 to 25 g were used in all DTH studies. When adrenalectomized studies were carried out, sham surgery and adrenalectomized mice were obtained from the vendor. Animals were maintained on a 12:12 hour light:dark cycle. […]
A DTH response was assessed by measuring the degree of rear foot pad swelling induced by picryl chloride. […] On day 3, mice were anesthetized with methoxyflurane, and the baseline rear foot pad thickness was measured with a micrometer (Mitutoyo) in μ, and was recorded in duplicate. […] Twenty-four hours later, the mice were sacrificed by CO2 asphyxiation and each rear foot pad was again measured in duplicate, and any evidence of foot pad swelling was calculated. […]

[3] = test system: serum prolactin; assay: Serum prolactin levels in mice, time course; format: in vivo, mouse (Balb/C)
Protocol: A further mechanistic study wherein rat serum prolactin levels were quantitated 1 hour post-treatment with varying doses of D-1-isopropyl-6-n-propyl-8β-methylthiomethyl ergoline is summarized in FIG. 11. […] A time course/dose response study of D-1-isopropyl-6-n-propyl-8β-methylthio-methyl ergoline effects on murine serum prolactin levels is presented in FIG. 12. […] There is however a disparity between the suppression of prolactin and anti-inflammatory activities of the ergolines with regard to the dose response profiles. Serum prolactin levels are much more sensitive to D-1-isopropyl-6-n-propyl-8β-methylthiomethyl ergoline (maximal suppression ~≤0.1 mg/kg) than are the anti-inflammatory effects 3-10 mg/kg, See FIG. 5).
Both Balb/C mice (male, approximately 20 g, Charles Rivers) and Lewis rats (male, approximately 200 g, Charles River or Harlan Sprague Dawley) were used in neuroendocrine studies. Animals were maintained on a 12:12 hour light:dark cycle and were allowed ad lib access for food (Purina lab chow) and water. Experimental groups consisted of 6 to 8 animals.
After dosing with test compounds, animals were sacrificed by decapitation at 1, 3, 8 or 24 hour intervals. […] Serum prolactin was determined by radioimmunoassay. Serum corticosterone levels were determined with a kit designed for such determinations and obtained from ICN.

[4] = test system: dopamine receptor (DTH response); assay: Reversal of DTH inhibition by dopamine receptor antagonists; format: in vivo, mouse; details: FIG. 9 Panels B, C legend; pretreated with domperidone or sulpiride
Protocol: as §1, §2, §3

[5] = test system: carrageenan induced paw swelling; assay: Carrageenan edema model (acute paw inflammation); format: in vivo, rat (Lewis); details: Rattus norvegicus, ip; read-out: ED50, inhibition of carrageenan induced paw swelling
[6] = test system: graft versus host response (splenomegaly); format: in vivo, mouse (B6C3F1); details: FIG. 13, 10 daily doses
[7] = listed as D-1-isopropyl-6-n-propyl-8β-methylthiomethyl ergoline

CCCN1C[C@H](CSC)C[C@@H]2c3cccc4c3c(cn4C(C)C)C[C@H]21 [Compound 1, D-1-isopropyl-6-n-propyl-8β-methylthiomethyl ergoline]
reduction of paw swelling in DTH ([1]; FIG. 4 Panel A): efficacy | reduction of DTH paw swelling, 4 day vs two day treatment ([1]; FIG. 4 Panel A, 4 days vs two day treatment schedule): superior efficacy | dose for anti-inflammatory effects ([1]; FIG. 5): 3 to 10 mg/kg | anti-inflammatory effect in mice lacking an adrenal gland [2, 7]: retained | anti-inflammatory effect in mice lacking an adrenal gland ([2]; listed as compound 1): inhibitory effect | duration of effect on serum prolactin ([3]; FIG. 12, single injection): particularly long lasting effects | ED (maximal) ([3]; Mus musculus, compared with anti-inflammatory doses, read-out: dose for maximal suppression of serum prolactin): ≤ 0.1 mg/kg | reversal of DTH inhibition by antagonist pretreatment [4]: reversal of inhibition of the DTH | ED50 [5]: ~0.3 mg/kg | immunosuppressive activity / effect on GVH splenomegaly ([6]; listed as D-1-isopropyl-6-n-propyl-8β-methyl-thiomethyl ergoline): unaffected | immunosuppressive activity / effect on GVH splenomegaly [6, 7]: no immunosuppressive activity | immunosuppressive activity / effect on GVH splenomegaly ([6]; listed as compound 1): Lack of effect
